Reference: ChEMBL document CHEMBL3991601, “The target landscape of clinical kinase drugs” (Science, 2017)
The source made the active and inactive calls.

What was measured:
Ephrin type-B receptor 3 = target: T1, Ephrin type-B receptor 3 (Homo sapiens, UniProt P54753)
T1 sequence (P54753 whole entry): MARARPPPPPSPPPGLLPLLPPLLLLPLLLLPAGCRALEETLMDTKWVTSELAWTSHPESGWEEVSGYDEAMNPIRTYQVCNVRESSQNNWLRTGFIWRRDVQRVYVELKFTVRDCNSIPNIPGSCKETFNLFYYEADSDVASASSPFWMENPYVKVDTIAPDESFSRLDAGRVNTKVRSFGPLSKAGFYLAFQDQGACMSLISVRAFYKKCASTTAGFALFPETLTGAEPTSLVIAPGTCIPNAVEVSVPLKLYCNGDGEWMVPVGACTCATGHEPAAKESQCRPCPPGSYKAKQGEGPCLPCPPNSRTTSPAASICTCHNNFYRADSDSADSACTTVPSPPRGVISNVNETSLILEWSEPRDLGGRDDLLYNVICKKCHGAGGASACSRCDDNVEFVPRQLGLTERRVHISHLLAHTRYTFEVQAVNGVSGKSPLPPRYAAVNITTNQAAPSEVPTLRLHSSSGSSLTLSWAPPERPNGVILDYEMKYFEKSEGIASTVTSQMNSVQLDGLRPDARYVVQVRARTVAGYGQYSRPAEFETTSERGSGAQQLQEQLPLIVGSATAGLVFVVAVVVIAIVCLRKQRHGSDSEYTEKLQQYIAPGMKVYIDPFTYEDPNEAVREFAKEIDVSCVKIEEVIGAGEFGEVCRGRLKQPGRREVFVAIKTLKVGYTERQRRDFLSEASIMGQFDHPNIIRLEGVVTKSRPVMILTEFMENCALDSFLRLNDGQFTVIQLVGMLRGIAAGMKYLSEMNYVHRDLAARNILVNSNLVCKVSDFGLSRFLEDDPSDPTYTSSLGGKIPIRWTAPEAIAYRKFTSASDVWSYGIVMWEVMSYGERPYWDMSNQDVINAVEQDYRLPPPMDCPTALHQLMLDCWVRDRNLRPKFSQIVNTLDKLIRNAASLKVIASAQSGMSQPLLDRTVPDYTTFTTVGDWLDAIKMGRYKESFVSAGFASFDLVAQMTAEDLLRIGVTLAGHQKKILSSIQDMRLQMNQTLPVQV

[1] = target: T2, Mitogen-activated protein kinase kinase kinase 6 (Homo sapiens, UniProt O95382)
T2 sequence (O95382 whole entry): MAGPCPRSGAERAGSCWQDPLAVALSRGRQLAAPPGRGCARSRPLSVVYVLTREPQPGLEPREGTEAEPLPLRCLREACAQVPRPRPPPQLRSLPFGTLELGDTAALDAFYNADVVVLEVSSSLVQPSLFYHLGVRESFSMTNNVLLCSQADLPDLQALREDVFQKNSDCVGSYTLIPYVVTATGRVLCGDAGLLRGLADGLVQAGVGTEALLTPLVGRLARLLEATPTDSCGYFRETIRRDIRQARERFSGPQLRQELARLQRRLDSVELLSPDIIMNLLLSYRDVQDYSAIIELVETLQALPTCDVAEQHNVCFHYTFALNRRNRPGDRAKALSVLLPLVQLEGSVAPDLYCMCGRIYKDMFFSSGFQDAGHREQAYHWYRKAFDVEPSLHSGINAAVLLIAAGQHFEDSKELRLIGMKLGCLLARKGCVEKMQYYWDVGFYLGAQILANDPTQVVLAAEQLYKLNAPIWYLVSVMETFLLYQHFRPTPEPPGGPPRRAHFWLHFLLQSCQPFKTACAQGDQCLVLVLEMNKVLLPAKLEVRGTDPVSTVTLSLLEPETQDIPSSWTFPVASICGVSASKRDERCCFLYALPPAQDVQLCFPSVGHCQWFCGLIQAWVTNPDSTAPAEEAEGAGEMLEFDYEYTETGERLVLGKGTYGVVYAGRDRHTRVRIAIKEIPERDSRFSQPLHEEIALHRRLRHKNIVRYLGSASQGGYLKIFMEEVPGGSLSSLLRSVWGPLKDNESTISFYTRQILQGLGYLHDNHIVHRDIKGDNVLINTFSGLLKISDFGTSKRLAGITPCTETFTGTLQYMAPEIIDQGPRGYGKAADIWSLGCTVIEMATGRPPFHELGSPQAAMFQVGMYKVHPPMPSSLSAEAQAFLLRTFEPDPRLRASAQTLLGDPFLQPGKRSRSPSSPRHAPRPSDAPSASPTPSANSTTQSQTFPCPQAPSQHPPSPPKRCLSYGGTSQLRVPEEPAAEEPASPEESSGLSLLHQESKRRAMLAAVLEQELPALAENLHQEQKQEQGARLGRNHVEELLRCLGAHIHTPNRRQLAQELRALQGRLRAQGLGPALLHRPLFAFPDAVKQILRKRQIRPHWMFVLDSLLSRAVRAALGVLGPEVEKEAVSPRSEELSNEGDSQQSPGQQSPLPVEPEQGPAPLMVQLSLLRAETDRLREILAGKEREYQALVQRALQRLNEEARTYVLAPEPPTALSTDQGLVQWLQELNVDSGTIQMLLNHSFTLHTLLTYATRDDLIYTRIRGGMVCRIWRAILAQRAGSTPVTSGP

[2] = target: Protein kinase C delta type (Homo sapiens, UniProt Q05655)
Sequence of Protein kinase C delta type (Q05655 whole entry): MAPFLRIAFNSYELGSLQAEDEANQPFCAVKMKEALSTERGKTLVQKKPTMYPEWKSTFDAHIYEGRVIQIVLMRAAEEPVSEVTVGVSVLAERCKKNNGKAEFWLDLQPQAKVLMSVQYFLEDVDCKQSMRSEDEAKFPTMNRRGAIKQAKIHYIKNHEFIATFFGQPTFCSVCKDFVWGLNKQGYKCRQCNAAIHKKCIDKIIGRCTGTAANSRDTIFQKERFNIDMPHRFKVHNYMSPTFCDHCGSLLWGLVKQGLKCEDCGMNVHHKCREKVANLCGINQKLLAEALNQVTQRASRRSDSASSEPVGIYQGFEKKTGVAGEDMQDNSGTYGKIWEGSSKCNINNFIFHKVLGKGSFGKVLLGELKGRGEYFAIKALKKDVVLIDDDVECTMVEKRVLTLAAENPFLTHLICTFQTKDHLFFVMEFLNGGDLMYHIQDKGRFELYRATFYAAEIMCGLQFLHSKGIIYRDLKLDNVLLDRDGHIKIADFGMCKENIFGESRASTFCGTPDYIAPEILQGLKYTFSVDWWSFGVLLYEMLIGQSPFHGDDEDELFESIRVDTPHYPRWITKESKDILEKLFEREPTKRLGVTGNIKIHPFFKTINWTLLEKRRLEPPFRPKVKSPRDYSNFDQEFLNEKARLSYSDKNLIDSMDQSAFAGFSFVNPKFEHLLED

[3] = target: T3, General transcription and DNA repair factor IIH helicase subunit XPD (Homo sapiens, UniProt P18074); conditions: read-out: Kd apparent; k-562, colo 205, sk-n-be(2) and mv-4-11
T3 sequence (P18074 whole entry): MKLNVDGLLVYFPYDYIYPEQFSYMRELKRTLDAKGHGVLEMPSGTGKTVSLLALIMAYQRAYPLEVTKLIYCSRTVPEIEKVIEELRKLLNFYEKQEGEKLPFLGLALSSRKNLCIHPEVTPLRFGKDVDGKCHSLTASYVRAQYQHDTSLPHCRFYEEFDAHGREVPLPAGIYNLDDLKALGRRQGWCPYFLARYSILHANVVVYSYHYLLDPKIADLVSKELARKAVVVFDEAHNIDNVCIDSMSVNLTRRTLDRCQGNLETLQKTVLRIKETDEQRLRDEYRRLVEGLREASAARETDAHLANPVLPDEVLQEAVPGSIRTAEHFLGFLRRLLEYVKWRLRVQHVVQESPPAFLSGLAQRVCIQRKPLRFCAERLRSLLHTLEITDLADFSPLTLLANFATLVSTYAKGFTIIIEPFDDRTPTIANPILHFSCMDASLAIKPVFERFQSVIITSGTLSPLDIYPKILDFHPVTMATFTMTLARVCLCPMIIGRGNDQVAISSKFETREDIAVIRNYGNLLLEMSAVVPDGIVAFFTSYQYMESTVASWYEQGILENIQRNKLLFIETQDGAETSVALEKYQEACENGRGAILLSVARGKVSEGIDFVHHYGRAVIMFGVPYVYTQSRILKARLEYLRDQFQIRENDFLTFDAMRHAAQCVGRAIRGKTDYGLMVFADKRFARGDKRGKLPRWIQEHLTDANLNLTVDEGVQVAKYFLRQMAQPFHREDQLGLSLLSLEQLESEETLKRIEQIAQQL
Note: in the data inactive means no Kd found up to 30 µM.

Row | SMILES | Kd (Ephrin type-B receptor 3) | Kd [1] | Kd [2] | Kd [3]
1 | c1cc(OCCN2CCCCC2)cc(-c2n[nH]c3ccc(-c4nc[nH]n4)cc23)c1 [CC-401] | > 30 µM (inactive) | > 30 µM (inactive) | > 30 µM (inactive) | > 30 µM (inactive)
2 | COc1cc2ncnc(Nc3ccc(F)c(Cl)c3)c2cc1NC(=O)/C=C/CN1CCCCC1 [DACOMITINIB ANHYDROUS] | > 30 µM (inactive) | > 30 µM (inactive) | > 30 µM (inactive) | > 30 µM (inactive)
3 | Cn1c(=O)n(-c2ccc(C(C)(C)C#N)cc2)c2c3cc(-c4cnc5ccccc5c4)ccc3ncc21 [DACTOLISIB] | > 30 µM (inactive) | > 30 µM (inactive) | > 30 µM (inactive) | > 30 µM (inactive)
4 | CC[C@@](C)(Nc1ccnc(-c2c[nH]c3ncccc23)n1)C(=O)NCC(F)(F)F [DECERNOTINIB] | > 30 µM (inactive) | > 30 µM (inactive) | 0.067 µM (active) | > 30 µM (inactive)
5 | CNC(=O)c1ccc(Nc2ncc(C(F)(F)F)c(NCc3nccnc3N(C)S(C)(=O)=O)n2)cc1 [DEFACTINIB] | > 30 µM (inactive) | > 30 µM (inactive) | > 30 µM (inactive) | 2.26 µM (active)
6 | COc1cc(Nc2ncc(F)c(Nc3ccc4c(n3)N(COP(=O)(O)O)C(=O)C(C)(C)O4)n2)cc(OC)c1OC [FOSTAMATINIB] | > 30 µM (inactive) | > 30 µM (inactive) | > 30 µM (inactive) | > 30 µM (inactive)
7 | CCc1nc(C(N)=O)c(Nc2ccc(N3CCC(N4CCN(C)CC4)CC3)c(OC)c2)nc1NC1CCOCC1 [GILTERITINIB] | > 30 µM (inactive) | > 30 µM (inactive) | > 30 µM (inactive) | > 30 µM (inactive)
8 | Cc1c(Cn2c(C)nc3c(C(=O)O)cc(N4CCOCC4)cc32)cccc1C(F)(F)F [GSK-2636771] | > 30 µM (inactive) | > 30 µM (inactive) | > 30 µM (inactive) | > 30 µM (inactive)
9 | O=S(=O)(c1cccc2c(O)nccc12)N1CCCNCC1 [HYDROXYFASUDIL] | > 30 µM (inactive) | > 30 µM (inactive) | > 30 µM (inactive) | > 30 µM (inactive)
10 | C#Cc1cccc(Nc2ncnc3cc4c(cc23)OCCOCCOCCO4)c1 [ICOTINIB] | > 30 µM (inactive) | > 30 µM (inactive) | > 30 µM (inactive) | > 30 µM (inactive)
11 | COc1cc2ncnc3c2cc1OCCCCCN(C)Cc1ccc(Br)cc1N3 [JNJ-26483327] | > 30 µM (inactive) | > 30 µM (inactive) | > 30 µM (inactive) | > 30 µM (inactive)
12 | Cc1ccc(C(=O)Nc2ccc(Oc3cc4cnn(C)c4cc3-c3cn[nH]c3)c(F)c2)c(=O)n1-c1ccc(F)cc1 [MERESTINIB] | > 30 µM (inactive) | > 30 µM (inactive) | > 30 µM (inactive) | > 30 µM (inactive)
13 | O=C(NOC[C@H](O)CO)c1ccc(F)c(F)c1Nc1ccc(I)cc1F [MIRDAMETINIB] | > 30 µM (inactive) | > 30 µM (inactive) | > 30 µM (inactive) | > 30 µM (inactive)
14 | COc1cccc2cc(-c3nc([C@H]4CC[C@H](C(=O)O)CC4)n4ncnc(N)c34)[nH]c12 [OSI-027] | > 30 µM (inactive) | > 30 µM (inactive) | > 30 µM (inactive) | > 30 µM (inactive)
15 | O=C(Nc1ccc(OC(F)(F)F)cc1)c1sccc1NCc1ccnc2ccccc12 [OSI-930] | > 30 µM (inactive) | > 30 µM (inactive) | > 30 µM (inactive) | > 30 µM (inactive)
16 | CC(C)CC(=O)Nc1[nH]nc2c1CN(C(=O)C1CCN(C)CC1)C2(C)C [PHA-793887] | > 30 µM (inactive) | > 30 µM (inactive) | > 30 µM (inactive) | 0.01 µM (active)
17 | O=C(NC[C@H](O)CO)c1ccncc1Nc1ccc(I)cc1F [PIMASERTIB] | > 30 µM (inactive) | > 30 µM (inactive) | > 30 µM (inactive) | > 30 µM (inactive)
18 | COc1cc(F)c(F)c(Nc2ccc(I)cc2F)c1NS(=O)(=O)C1(C[C@H](O)CO)CC1 [REFAMETINIB] | > 30 µM (inactive) | > 30 µM (inactive) | > 30 µM (inactive) | > 30 µM (inactive)
19 | COCCN1CCN(Cc2ccc(-c3n[nH]c4c3C(=O)c3c(NC(=O)NN5CCOCC5)cccc3-4)cc2)CC1 [RGB-286638] | > 30 µM (inactive) | > 30 µM (inactive) | > 30 µM (inactive) | 0.456 µM (active)
20 | C=CC(=O)Nc1cccc(Nc2nc(Nc3ccc(N4CCN(C(C)=O)CC4)cc3OC)ncc2C(F)(F)F)c1 [ROCILETINIB] | > 30 µM (inactive) | > 30 µM (inactive) | > 30 µM (inactive) | > 30 µM (inactive)
21 | O=C(O)c1ccc2c(c1)nc(Nc1cccc(Cl)c1)c1ccncc12 [SILMITASERTIB] | > 30 µM (inactive) | > 30 µM (inactive) | > 30 µM (inactive) | > 30 µM (inactive)
22 | C=CCN(/C=C1/C(=O)O[C@H](COC)[C@@]2(C)C1=C(O)C(=O)C1=C2[C@H](OC(C)=O)C[C@]2(C)C(=O)CC[C@@H]12)CC=C [SONOLISIB] | > 30 µM (inactive) | > 30 µM (inactive) | > 30 µM (inactive) | > 30 µM (inactive)
23 | CN1CCN(c2nc(C3=C(c4c[nH]c5ccccc45)C(=O)NC3=O)c3ccccc3n2)CC1 [SOTRASTAURIN] | > 30 µM (inactive) | > 30 µM (inactive) | 0.005 µM (active) | > 30 µM (inactive)
